Test results as given in EP3741762A1, “OXALAMIDO-SUBSTITUTED TRICYCLIC INHIBITORS OF HEPATITIS B VIRUS” (priority 2019, dated 2020).

Test system: HBV
Test: Anti-HBV activity in vitro: quantification of extracellular HBV DNA by direct qPCR in HepAD38 cells
Type: cell-based
Conditions: Hepatitis B virus, tetracycline-free medium, 96 hours at 37°C, reported as EC50 threshold value, read-out: HBV inh EC50
Excerpt: HepAD38 cell line (Ladner et al., Antimicrob Agents Chemother, 1997, 41, 1715-20) was used for HBV inhibition assays. HepAD38 is a subclone, derived from Hepatoblastoma cell line HepG2 (ATCC® Number: HB-8065™), that expresses HBV genome under the transcriptional control of a tetracycline-responsive promoter in a TET-OFF system: addition of tetracycline (TET) or doxycycline suppresses HBV replication, while its removal switches on the process allowing HBV viral particles release in the cell supernatant. HepAD38 cell line is maintained in DMEM/F12, supplemented with 10% of fetal bovine serum, 1% of glutamine, 1% of penicillin/streptomycin, 0.4 mg/ml G418 and 0,3 ug/ml tetracycline. For the HBV inhibition assay, doxycycline-free medium is used in order to allow virion production.
HBV inhibition activity in vitro was performed in 96 multiwell plates. During the initial (primary) screening, compounds were first tested in triplicates at concentrations of 0.02 µM, 0.1 µM, 0.5µM and 1µM. For selected compounds, an 8-point dose-response curve was obtained using 1:2 serial dilutions (starting from 0.01µM, 0.1µM, 0.4µM or 5 µM, depending on the degree of inhibition observed during the primary screening). From the dose-response curves, half maximal effective concentration (EC50) could be calculated (see also below).
In more detail, compounds - typically dissolved in DMSO stock solutions - were diluted to 2x the final desired concentration in 100 µl of the above medium (without doxycycline) and plated in three replicates in the 96-well plates.
Simultaneously, HepAD38 cells - extensively pre-washed in tetracycline-free medium in order to induce HBV production - were suspended at 2^∗10^4 cells in 100 µl of tetracycline-free medium and added to each well of the plate, to yield a final assay volume of 200 µl DMSO - used for stock solutions and compounds dilutions - which was always present in the assays at a final concentration of 0.5%.
Plates were then incubated 96 hours at 37°C and then subjected to cell viability assays and extracellular HBV quantification, in order to evaluate both the cytotoxic potential and the antiviral activity of compounds. Cytotoxicity was assessed by a commercial fluorescence assay that measures the metabolic activity of cells, directly related to cell viability (Cell Titer Blue, Promega). Anti-HBV activity was evaluated by quantification of extracellular HBV DNA with direct qPCR. In particular, supernatant was collected and centrifuged for cell debris clarification, viral DNA was extracted from virions by addition of lysis buffer (1 mM 1,4-dithiothreitol, 0.2% sodium dodecyl sulphate) and incubated at 95°C for 10 min. Samples were then diluted 1:40 and real time PCR amplification was performed with SYBR green assay (Power SYBR™ Green PCR Master Mix-Thermo Fisher Scientific) and specific HBV primer (HBV-DF:5'-[…]-3' (SEQ ID No. 1), HBV-DR:5'-[…]-3' (SEQ ID No.2)).
Antiviral activity data for each compound are reported as EC50 threshold value (see Table 1 legend). Excel and Graphpad Prism programs are typically used for data elaboration and EC50 calculation.

SMILES | EC50 [nM]
Cc1cc(NC(=O)c2c3c(cn2C)S(=O)(=O)N[C@H]2CN(C(=O)C(=O)NC4CC4)C[C@H]2CO3)ccc1F [Example E8, (3aR,10aR)-2-(2-(cyclopropylamino)-2-oxoacetyl)-N-(4-fluoro-3-methylphenyl)-7-methyl-2,3,3a,4,10,10a-hexahydro-1H,7H-dipyrrolo[3,4-b:3',4'-f][1,4,5]oxathiazocine-8-carboxamide 5,5-dioxide] | < 500
Cc1cc(NC(=O)c2c3c(cn2C)S(=O)(=O)N[C@H]2CN(C(=O)C(=O)N[C@H](C)C(F)(F)F)C[C@H]2CO3)ccc1F [Example E9, (3aR,10aR)-N-(4-fluoro-3-methylphenyl)-7-methyl-2-(2-oxo-2-(((R)-1,1,1-trifluoropropan-2-yl)amino)acetyl)-2,3,3a,4,10,10a-hexahydro-1H,7H-dipyrrolo[3,4-b:3',4'-f][1,4,5]oxathiazocine-8-carboxamide 5,5-dioxide] | < 500
Cc1cc(NC(=O)c2c3c(cn2C)S(=O)(=O)N[C@H]2CN(C(=O)C(=O)NC4CC(F)(F)C4)C[C@H]2CO3)ccc1F [Example E14, (3aR,10aR)-2-(2-((3,3-difluorocyclobutyl)amino)-2-oxoacetyl)-N-(4-fluoro-3-methylphenyl)-7-methyl-2,3,3a,4,10,10a-hexahydro-1H,7H-dipyrrolo[3,4-b:3',4'-f][1,4,5]oxathiazocine-8-carboxamide 5,5-dioxide] | < 500
Cc1cc(NC(=O)c2c3c(cn2C)S(=O)(=O)N[C@H]2CN(C(=O)C(=O)N[C@@H](C)C(F)(F)F)C[C@H]2CO3)ccc1F [Example E15, (3aR,10aR)-N-(4-fluoro-3-methylphenyl)-7-methyl-2-(2-oxo-2-(((S)-1,1,1-trifluoropropan-2-yl)amino)acetyl)-2,3,3a,4,10,10a-hexahydro-1H,7H-dipyrrolo[3,4-b:3',4'-f][1,4,5]oxathiazocine-8-carboxamide 5,5-dioxide] | < 500
Cc1cc(NC(=O)c2c3c(cn2C)S(=O)(=O)N[C@H]2CN(C(=O)C(=O)NCC(C)C)C[C@H]2CO3)ccc1F [Example E16, (3aR,10aR)-N-(4-fluoro-3-methylphenyl)-2-(2-(isobutylamino)-2-oxoacetyl)-7-methyl-2,3,3a,4,10,10a-hexahydro-1H,7H-dipyrrolo[3,4-b:3',4'-f][1,4,5]oxathiazocine-8-carboxamide 5,5-dioxide] | < 500
Cc1cc(NC(=O)c2c3c(cn2C)S(=O)(=O)N[C@H]2CN(C(=O)C(=O)NCC(F)(F)F)C[C@H]2CO3)ccc1F [Example E17, (3aR,10aR)-N-(4-fluoro-3-methylphenyl)-7-methyl-2-(2-oxo-2-((2,2,2-trifluoroethyl)amino)acetyl)-2,3,3a,4,10,10a-hexahydro-1H,7H-dipyrrolo[3,4-b:3',4'-f][1,4,5]oxathiazocine-8-carboxamide 5,5-dioxide] | < 500
Cc1cc(NC(=O)c2c3c(cn2C)S(=O)(=O)N[C@H]2CN(C(=O)C(=O)NC4(C)CC4)C[C@H]2CO3)ccc1F [Example E18, (3aR,10aR)-N-(4-fluoro-3-methylphenyl)-7-methyl-2-(2-((1-methylcyclopropyl)amino)-2-oxoacetyl)-2,3,3a,4,10,10a-hexahydro-1H,7H-dipyrrolo[3,4-b:3',4'-f][1,4,5]oxathiazocine-8-carboxamide 5,5-dioxide] | < 500
Cc1cc(NC(=O)c2c3c(cn2C)S(=O)(=O)N[C@H]2CN(C(=O)C(=O)NC4(C(F)(F)F)CC4)C[C@H]2CO3)ccc1F [Example E19, (3aR,10aR)-N-(4-fluoro-3-methylphenyl)-7-methyl-2-(2-oxo-2-((1-(trifluoromethyl)cyclopropyl)amino)acetyl)-2,3,3a,4,10,10a-hexahydro-1H,7H-dipyrrolo[3,4-b:3',4'-f][1,4,5]oxathiazocine-8-carboxamide 5,5-dioxide] | < 500
Cc1cc(NC(=O)c2c3c(cn2C)S(=O)(=O)N[C@H]2CN(C(=O)C(=O)NCC4CC4)C[C@H]2CO3)ccc1F [Example E20, (3aR,10aR)-2-(2-((cyclopropylmethyl)amino)-2-oxoacetyl)-N-(4-fluoro-3-methylphenyl)-7-methyl-2,3,3a,4,10,10a-hexahydro-1H,7H-dipyrrolo[3,4-b:3',4'-f][1,4,5]oxathiazocine-8-carboxamide 5,5-dioxide] | < 500
Cc1cc(NC(=O)c2c3c(cn2C)S(=O)(=O)N[C@H]2CN(C(=O)C(=O)NC(C)C)C[C@H]2CO3)ccc1F [Example E21, (3aR,10aR)-N-(4-fluoro-3-methylphenyl)-2-(2-(isopropylamino)-2-oxoacetyl)-7-methyl-2,3,3a,4,10,10a-hexahydro-1H,7H-dipyrrolo[3,4-b:3',4'-f][1,4,5]oxathiazocine-8-carboxamide 5,5-dioxide] | < 500
Cc1cc(NC(=O)c2c3c(cn2C)S(=O)(=O)N[C@H]2CN(C(=O)C(=O)NC4CCC4)C[C@H]2CO3)ccc1F [Example E22, (3aR,10aR)-2-(2-(cyclobutylamino)-2-oxoacetyl)-N-(4-fluoro-3-methylphenyl)-7-methyl-2,3,3a,4,10,10a-hexahydro-1H,7H-dipyrrolo[3,4-b:3',4'-f][1,4,5]oxathiazocine-8-carboxamide 5,5-dioxide] | < 500
Cc1cc(NC(=O)c2c3c(cn2C)S(=O)(=O)N[C@H]2CN(C(=O)C(=O)NC4CC4)C[C@H]2CS3)ccc1F [Example E23, (3aR,10aR)-2-(2-(cyclopropylamino)-2-oxoacetyl)-N-(4-fluoro-3-methylphenyl)-7-methyl-2,3,3a,4,10,10a-hexahydro-1H,7H-dipyrrolo[3,4-c:3',4'-g][1,6,2]dithiazocine-8-carboxamide 5,5-dioxide] | < 500
Cc1cc(NC(=O)c2c3c(cn2C)S(=O)(=O)N[C@H]2CN(C(=O)C(=O)N[C@H](C)C(F)(F)F)C[C@H]2CS3)ccc1F [Example E24, (3aR,10aR)-N-(4-fluoro-3-methylphenyl)-7-methyl-2-(2-oxo-2-(((R)-1,1,1-trifluoropropan-2-yl)amino)acetyl)-2,3,3a,4,10,10a-hexahydro-1H,7H-dipyrrolo[3,4-c:3',4'-g][1,6,2] dithiazocine-8-carboxamide 5,5-dioxide] | < 500
Cc1cc(NC(=O)c2c3c(cn2C)S(=O)(=O)N[C@H]2CN(C(=O)C(=O)N4CC(F)(F)C4)C[C@H]2CO3)ccc1F [Example E29, (3aR,10aR)-2-(2-(3,3-difluoroazetidin-1-yl)-2-oxoacetyl)-N-(4-fluoro-3-methylphenyl)-7-methyl-2,3,3a,4,10,10a-hexahydro-1H,7H-dipyrrolo[3,4-b:3',4'-f][1,4,5]oxathiazocine-8-carboxamide 5,5-dioxide] | < 500
Cc1cc(NC(=O)c2c3c(cn2C)S(=O)(=O)N[C@H]2CN(C(=O)C(=O)NC(C)(C)C(F)(F)F)C[C@H]2CO3)ccc1F [Example E32, (3aR,10aR)-N-(4-fluoro-3-methylphenyl)-7-methyl-2-(2-oxo-2-((1,1,1-trifluoro-2-methylpropan-2-yl)amino)acetyl)-2,3,3a,4,10,10a-hexahydro-1H,7H-dipyrrolo[3,4-b:3',4'-f][1,4,5]oxathiazocine-8-carboxamide 5,5-dioxide] | < 500
Cc1cc(NC(=O)c2c3c(cn2C)S(=O)(=O)N[C@H]2CN(C(=O)C(=O)NC4(C(F)(F)F)CCC4)C[C@H]2CO3)ccc1F [Example E33, (3aR,10aR)-N-(4-fluoro-3-methylphenyl)-7-methyl-2-(2-oxo-2-((1-(trifluoromethyl)cyclobutyl)amino)acetyl)-2,3,3a,4,10,10a-hexahydro-1H,7H-dipyrrolo[3,4-b:3',4'-f][1,4,5]oxathiazocine-8-carboxamide 5,5-dioxide] | < 500
Cc1cc(NC(=O)c2c3c(cn2C)S(=O)(=O)N[C@H]2CN(C(=O)C(N)=O)C[C@H]2CS3)ccc1F [Example E34, (3aR,10aR)-2-(2-amino-2-oxoacetyl)-N-(4-fluoro-3-methylphenyl)-7-methyl-2,3,3a,4,10,10a-hexahydro-1H,7H-dipyrrolo[3,4-c:3',4'-g][1,6,2]dithiazocine-8-carboxamide 5,5-dioxide] | < 500
